From article PMC11249646, “Small-Molecule Disruptors of the Interaction between Calcium- and Integrin-Binding Protein 1 and Integrin αIIbβ3 as Novel Antiplatelet Agents” (ACS Pharmacology & Translational Science, 2024)
pIC50: −log10 of the molar value. Where two headings read alike, the source gives them in different places.

Key:
[1] = target: T1, GST-CIB1 : F-scrambled peptide (Homo sapiens, UniProt Q99828); assay: FP scrambled-peptide counter screen, 1536-well format; assay type: binding; settings: for COUNTERSCREEN Curve Class / Curve Class (counterscreen): qHTS curve class; for IC50: read-out: IC50 [μM] (counterscreen)
T1 construct: made in house; host or cells: BL-21 plus RIL cells (E. coli)
T1 sequence (Q99828 1-191): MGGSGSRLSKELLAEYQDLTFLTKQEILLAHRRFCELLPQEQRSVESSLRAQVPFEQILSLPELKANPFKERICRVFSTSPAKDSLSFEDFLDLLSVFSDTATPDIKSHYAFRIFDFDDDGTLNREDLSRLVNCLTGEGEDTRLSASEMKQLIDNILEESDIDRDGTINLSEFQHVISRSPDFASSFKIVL

[2] = target: T2, CIB1 and αIIb interaction (CIB1-GST : F-αIIb peptide) (Homo sapiens, UniProt Q99828); assay: FP assay, 1536-well qHTS format (primary and confirmatory screen); assay type: binding; settings: for CONFIRMATORY SCREEN Curve Class / Curve Class (confirmatory screen): qHTS curve class; for IC50: read-out: IC50 [μM] (confirmatory screen)
T2 construct: made in house; host or cells: BL-21 plus RIL cells (E. coli)
T2 sequence (Q99828 1-191): T1 sequence (Q99828 1-191)

[3] = qHTS primary screen hits, Table S2, negative = inhibition
[4] = qHTS primary screen hits, Table S2, negative sign = inhibitory curve, several classes where COUNT > 1
[5] = qHTS primary screen hits, Table S2, read-out: IC50
[6] = counterscreen, negative sign = inhibitory curve
[7] = confirmatory screen, negative sign = inhibitory curve
[8] = qHTS FP screen hits, Table S2, negative = inhibition
[9] = qHTS FP screen hits, Table S2, one class per curve where COUNT > 1, negative sign = inhibitory curve
[10] = qHTS FP screen hits, Table S2, read-out: IC50
[11] = Table S3, counterscreen, YES/NO call
[12] = Table S3, counterscreen, negative = inhibition
[13] = Table S3, counterscreen, a negative sign marks inhibitory curves
[14] = Table S3, confirmatory screen, a negative sign marks inhibitory curves
[15] = Table S3, confirmatory screen, negative = inhibition
[16] = qHTS primary screen hits, Table S2, negative sign = inhibitory curve
[17] = scrambled-peptide counterscreen
[18] = scrambled-peptide counterscreen, YES/NO call
[19] = confirmatory screen, YES/NO call
[20] = confirmatory screen, negative = inhibition
[21] = confirmatory screen, read-out: CONFIRMATORY SCREEN IC50
[22] = Table S3, confirmatory screen, YES/NO call

| SMILES | Efficacy (%) (counterscreen) ([1]; counterscreen) | Curve Class (counterscreen) [1, 6] | IC50 ([1]; counterscreen) | Efficacy (%) (confirmatory screen) ([2]; confirmatory screen) | Confirm? (confirmatory screen) ([2]; confirmatory screen, YES/NO) | Curve Class (confirmatory screen) [2, 7] | Efficacy (%) [2, 8] | Curve Class [2, 9] | pIC50 [2, 10] | Curve Class (counterscreen) [1, 13] | Efficacy (%) [2, 3] | Curve Class [2, 4] | pIC50 [2, 5] | Efficacy (%) (counterscreen) [1, 12] | IC50 ([1]; Table S3, counterscreen) | Curve Class (confirmatory screen) [2, 14] | Efficacy (%) (confirmatory screen) [2, 15] | further results |
| --- | --- | --- | --- | --- | --- | --- | --- | --- | --- | --- | --- | --- | --- | --- | --- | --- | --- | --- |
| O=C(O)C(F)(F)F.O=C1Nc2ccccc2/C1=N/NC(=S)Nc1c(F)cc(F)cc1F [NCGC00229537-01] | – | – | – | – | – | – | – | – | – | – | -30% | -1.4 | 4.90 | – | – | – | – | COUNTERSCREEN Efficacy (%) ([1]; counterscreen): -11%; COUNTERSCREEN Curve Class ([1]; counterscreen): 4; CONFIRMATORY SCREEN Efficacy (%) ([2]; confirmatory screen): -26%; CONFIRMATORY SCREEN Curve Class ([2]; confirmatory screen): 4 |
| CC(C)Oc1cccc(NC(=O)c2ccccc2C(F)(F)F)c1 [NCGC00160537-04] | – | – | – | – | – | – | – | – | – | – | – | – | 4.00 | -39% | 39.8 µM | – | – | Confirm? (counterscreen) [1, 11]: YES |
| CSc1cc2c(s1)c1cnn(Cc3cccc(N)c3)c(=O)c1n2C.O=C(O)C(F)(F)F [NCGC00188341-01] | 0% | 4 | – | -133% | YES | -2.1 | – | – | – | – | -65% | -1.2 | 4.70 | – | – | – | – | Confirm? (counterscreen) ([1]; counterscreen, YES/NO): YES; IC50 ([2]; confirmatory screen): 39.8 µM |
| O=C(O)C(F)(F)F.Oc1cccc2cc(N3CCCC3)cnc12 [NCGC00188744-01] | – | – | – | – | – | – | -48% | -2.2 | 4.55 | -1.4 | – | – | – | -34% | 17.8 µM | 4 | -14% | Confirm? (counterscreen) [1, 11]: YES |
| C[n+]1cc2c3c(ccc2c2ccc4cc5c(cc4c21)OCO5)OCO3.[Cl-] [NCGC00015959-09] | – | – | – | – | – | – | – | – | – | 4 | -124% | – | 4.85 | 0% | – | 4 | 0% | Curve Class [2, 16]: -1.1 |
| O=S(=O)(c1ccc2nc(Cl)c(Cl)nc2c1)N1CCN(S(=O)(=O)c2c(F)cccc2F)CC1 [NCGC00182436-01] | – | – | – | – | – | – | – | – | – | – | -32% | -1.4 | 5.66 | – | – | – | – | COUNTERSCREEN Efficacy (%) [1, 17]: -18%; COUNTERSCREEN Confirm? [1, 18]: YES; COUNTERSCREEN Curve Class [1, 17]: 4; CONFIRMATORY SCREEN Confirm? [2, 19]: YES; CONFIRMATORY SCREEN Curve Class [2, 7]: -1.4; CONFIRMATORY SCREEN Efficacy (%) [2, 20]: -43%; pIC50 [2, 21]: 5.25 |
| Cn1ccc(=Nc2ccc(NC(=O)c3ccc(/N=c4\ccn(C)c5ccc([N+](=O)[O-])cc45)cc3[N+](=O)[O-])cc2)cc1.O=C(O)C(F)(F)F [NCGC00356066-02] | -46% | -1.2 | 12.6 µM | -82% | YES | -1.2 | – | – | – | – | -65% | -2.2 | 4.40 | – | – | – | – | – |
| Cc1cc(C)nc(NC(=S)N2CCN(c3ccc4nsnc4c3)CC2)c1.O=C(O)C(F)(F)F [NCGC00244160-01] | -93% | -2.2 | 39.8 µM | -106% | YES | -2.1 | – | – | – | – | -85% | -2.1 | 4.30 | – | – | – | – | – |
| N#Cc1ccc(NS(=O)(=O)c2ccc(NC(=O)Cc3ccc(F)c(Cl)c3)cc2)cc1.O=C(O)C(F)(F)F [NCGC00343891-01] | – | – | – | – | – | – | – | – | – | 3 | -15% | -1.4 | 5.40 | 154% | 89.1 µM | 3 | 72% | – |
| Cc1ccc(S(=O)(=O)Nc2ccc(Br)cc2C(=O)Nc2nc(-c3ccccc3)cs2)cc1.O=C(O)C(F)(F)F [NCGC00262989-01] | – | – | – | – | – | – | – | – | – | – | -26% | -2.4 | 4.70 | 243% | 35.5 µM | 2.4 | 47% | – |
| Fc1ccc(NC(=S)Nc2nnc(-c3ccncc3)s2)cc1C(F)(F)F.O=C(O)C(F)(F)F [NCGC00241743-01] | – | – | – | – | – | – | -41% | -2.2 | 4.65 | – | – | – | – | – | – | – | – | COUNTERSCREEN Efficacy (%) ([1]; counterscreen): 39%; COUNTERSCREEN Curve Class ([1]; counterscreen): 4; CONFIRMATORY SCREEN Efficacy (%) ([2]; confirmatory screen): -35%; CONFIRMATORY SCREEN Curve Class ([2]; confirmatory screen): 4 |
| O=C(Cc1ccc(Cl)c(Cl)c1)Nc1ccc(S(=O)(=O)Nc2nncs2)cc1.O=C(O)C(F)(F)F [NCGC00248349-02] | – | – | – | – | – | – | – | – | – | – | -24% | – | 4.95 | – | – | – | – | COUNTERSCREEN Efficacy (%) [1, 17]: 12%; COUNTERSCREEN Confirm? [1, 18]: YES; COUNTERSCREEN Curve Class [1, 17]: 4; CONFIRMATORY SCREEN Confirm? [2, 19]: YES; CONFIRMATORY SCREEN Curve Class [2, 7]: -1.4; CONFIRMATORY SCREEN Efficacy (%) [2, 20]: -31%; pIC50 [2, 21]: 4.90; Curve Class [2, 16]: -1.4 |

Further lines, with some results ahead:

| Efficacy (%) (counterscreen) ([1]; counterscreen) | Curve Class (counterscreen) [1, 6] | IC50 ([1]; counterscreen) | Efficacy (%) (confirmatory screen) ([2]; confirmatory screen) | Confirm? (confirmatory screen) ([2]; confirmatory screen, YES/NO) | Curve Class (confirmatory screen) [2, 7] | Efficacy (%) [2, 8] | Curve Class [2, 9] | pIC50 [2, 10] | Curve Class (counterscreen) [1, 13] | SMILES | Efficacy (%) [2, 3] | Curve Class [2, 4] | pIC50 [2, 5] | Efficacy (%) (counterscreen) [1, 12] | IC50 ([1]; Table S3, counterscreen) | Curve Class (confirmatory screen) [2, 14] | Efficacy (%) (confirmatory screen) [2, 15] | further results |
| --- | --- | --- | --- | --- | --- | --- | --- | --- | --- | --- | --- | --- | --- | --- | --- | --- | --- | --- |
| -60% | -1.2 | 5 µM | -92% | YES | -1.1 | -87% | -2.2 | 4.35 | – | O=C(O)CSc1cc(NS(=O)(=O)c2ccc(Br)cc2)c2ccccc2c1O [NCGC00386409-01] | – | – | – | – | – | – | – | IC50 ([2]; confirmatory screen): 12.6 µM |
| -37% | -1.2 | 22.4 µM | -57% | YES | -2.2 | -37% | -2.2 | 4.30 | – | Cl.N=C(NCCCCCCNC(=N)NC(=N)Nc1ccc(Cl)cc1)NC(=N)Nc1ccc(Cl)cc1 [NCGC00016246-13] | – | – | – | – | – | – | – | IC50 ([2]; confirmatory screen): 35.5 µM |
| -36% | -1.2 | 4 µM | -53% | YES | -1.2 | -48% | -1.2 | 5.46 | – | CNc1ccc([N+](=O)[O-])c(Nc2ccc3[nH]ncc3c2)n1 [NCGC00387499-01] | – | – | – | – | – | – | – | IC50 ([2]; confirmatory screen): 2.8 µM |
| – | – | – | – | – | – | -24% | – | 4.95 | 4 | Cc1ccccc1NC(=O)CN1C(=O)N/C(=C\c2cn(-c3cccc(C(=O)O)c3)cn2)C1=O [NCGC00182400-01] | – | – | – | -14% | – | 4 | -21% | – |
| – | – | – | – | – | – | -116% | -2.1 | 4.35 | -2.1 | Cc1c(Cc2ccc3ccccc3n2)c2cc(F)ccc2n1CC(=O)O [NCGC00386286-04] | – | – | – | -123% | 44.7 µM | -2.1 | -124% | Confirm? (confirmatory screen) [2, 22]: YES; IC50 ([2]; Table S3, confirmatory screen): 50.1 µM |
| -36% | -2.2 | 39.8 µM | -58% | YES | -1.2 | – | – | – | – | Cc1ccc(CNc2ncnc3ccc(-c4ccc([C@@H](C)O)o4)cc23)o1 [NCGC00189251-01] | – | – | – | – | – | – | – | IC50 ([2]; confirmatory screen): 28.2 µM |
| – | – | – | – | – | – | -58% | -2.2 | 4.25 | -2.1 | COc1ccc(CC(NC(C)=O)C(=O)O)cc1 (stereo not drawn) [NCGC00384987-01] | – | – | – | -105% | 79.4 µM | -2.2 | -65% | Confirm? (confirmatory screen) [2, 22]: YES; IC50 ([2]; Table S3, confirmatory screen): 50.1 µM |
| – | – | – | – | – | – | – | – | – | -2.2 | O=C(O)c1cc(/N=N/c2ccc(S(=O)(=O)Nc3ccccn3)cc2)ccc1O [NCGC00090903-09] | – | – | – | -61% | 39.8 µM | -1.2 | -64% | Confirm? (confirmatory screen) [2, 22]: YES; IC50 ([2]; Table S3, confirmatory screen): 22.4 µM |
| -48% | -2.2 | 31.6 µM | -53% | YES | -2.4 | – | – | – | – | O=C1NC(c2ccc(N3CCOCC3)cc2)(c2ccsc2)CC(O)=C1Sc1ccccc1Cl (stereo not drawn) [NCGC00388532-05] | -27% | -1.4 | 6.05 | – | – | – | – | IC50 ([2]; confirmatory screen): 44.7 µM |
| -44% | -2.4 | 44.7 µM | -81% | YES | -2.2 | – | – | – | – | COc1cc(C=C2C(=O)Nc3ccccc32)cc(OC)c1O [NCGC00343740-01] | -53% | -2.2 | 4.35 | – | – | – | – | – |
